According to patent publication US6613553B1, “Enoyl reductases and methods of use thereof” (priority 2000, dated 2003):
Values after ≈ are worked out from the molar mass of the structure shown. “Also recorded” adds a separate entry of the source. Like-named read-outs stand apart in the source and are kept apart here.

Key:
S. pneumoniae R6 = experiment: triclosan MIC on brain heart infusion plates; type: cell-based; conditions: Streptococcus pneumoniae
E. coli expressing FabL = conditions: FabL cloned from B. subtilis (ygaA)
Text: However, such limited structural information alone cannot allow the identification since the overall identity of SDRs are low and the family size is large.

[1] = test system: E. coli W3110/pBluescript; experiment: triclosan MIC on LB agar plates; type: cell-based; conditions: Escherichia coli; E. coli W3110/pBluescript (empty vector); no growth in at least three experiments
B. subtilis = conditions: cited from earlier work
FabI[G93V] mutant = biological target: T1, FabI[G93V] mutant (Escherichia coli, UniProt P0AEK4, G93V); conditions: fails to form high-affinity FabI-NAD+-triclosan ternary complex; cited from earlier work
T1 sequence (P0AEK4 1-262 G93V): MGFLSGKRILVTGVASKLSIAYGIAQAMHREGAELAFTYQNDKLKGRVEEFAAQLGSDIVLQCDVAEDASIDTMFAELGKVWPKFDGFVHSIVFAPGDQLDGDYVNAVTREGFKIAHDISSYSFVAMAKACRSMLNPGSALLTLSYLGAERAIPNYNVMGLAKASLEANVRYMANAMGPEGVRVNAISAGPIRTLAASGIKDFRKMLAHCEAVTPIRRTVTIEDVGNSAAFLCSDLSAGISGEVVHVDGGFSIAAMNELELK

E. coli W3110/pfabK = experiment: triclosan MIC on LB agar plates; type: cell-based, Escherichia coli; conditions: for MIC: Escherichia coli
Description: FabI is the only enoyl reductase in E. coli and strain RJH13 harbors a fabI(Ts) allele and fails to grow at 42° C. [Heath et al., J. Biol. Chem., 273:30316 (1998)]. […] The pfabK plasmid was then introduced into the wild-type E. coli strain W3110. […] J. Infect. Control, 24:209 (1996)].

P. aeruginosa = conditions: contains both FabI and FabK; cited from earlier work
[2] = biological target: FabI protein from P. aeruginosa (Pseudomonas aeruginosa, UniProt Q9ZFE4); conditions: cited from earlier work
Sequence of FabI protein from P. aeruginosa (Q9ZFE4 whole entry): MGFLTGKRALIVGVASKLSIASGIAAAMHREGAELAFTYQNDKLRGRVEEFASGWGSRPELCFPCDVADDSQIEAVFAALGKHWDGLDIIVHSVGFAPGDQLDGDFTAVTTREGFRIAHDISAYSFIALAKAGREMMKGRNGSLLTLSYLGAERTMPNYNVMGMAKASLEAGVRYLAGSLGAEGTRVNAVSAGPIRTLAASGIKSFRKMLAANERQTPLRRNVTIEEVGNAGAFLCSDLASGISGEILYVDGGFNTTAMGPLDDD

[3] = test system: E. coli RJR108 (fabI[G93V]); experiment: triclosan MIC on LB agar plates; type: cell-based; conditions: Escherichia coli
E. coli W3110/pfabI = experiment: triclosan MIC on LB agar plates; type: cell-based; conditions: Escherichia coli; E. coli W3110/pfabI (His-tag E. coli FabI, multi-copy plasmid)
FabK = FabK (Streptococcus pneumoniae, UniProt Q9FBC5); type: biochemical
Sequence of FabK (Q9FBC5 entry or part of it): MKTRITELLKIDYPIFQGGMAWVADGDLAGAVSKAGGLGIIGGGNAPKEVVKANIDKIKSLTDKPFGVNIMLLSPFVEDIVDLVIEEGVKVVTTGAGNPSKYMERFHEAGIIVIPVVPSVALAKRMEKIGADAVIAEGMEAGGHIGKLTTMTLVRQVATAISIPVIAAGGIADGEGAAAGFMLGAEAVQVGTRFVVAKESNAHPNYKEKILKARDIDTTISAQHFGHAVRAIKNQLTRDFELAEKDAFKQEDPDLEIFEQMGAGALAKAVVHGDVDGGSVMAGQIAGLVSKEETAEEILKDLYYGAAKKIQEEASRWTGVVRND
Description: A coupled enzyme system was employed to assay FabK by combining the purified E. coli proteins required to reconstitute a cycle of fatty acid synthesis with the exception of the FabI enoyl-ACP reductase. Reaction mixtures were first incubated to generate trans-2-butenoyl-ACP and then the indicated amounts of FabK were added as described in the Example below. Products were separated by conformationally sensitive gel electrophoresis and the bands visualized and quantitated using a Phosphorimager (FIG. 2C).
Enzymatic Assays: A reaction mixture containing 100 μM ACP, 1 mM β-mercaptoethanol, 100 μM acetyl-CoA, 50 μM [2-^14C]malonyl-CoA (56 mCi/mmol), 200 μM NADPH, 200 μM NADH, and 12.5 μg/ml of each FabD, FabH, FabG, FabA and FabZ in 0.1 M sodium phosphate pH 7.0 was incubated at 37° C. for 30 min to generate the trans-2-enoyl-ACP substrate before being aliquoted into individual reaction tubes to which FabK was added to the final amount as indicated for the Figures, above. The final reaction volume was 40 μL. Reactions were then incubated for 30 min at 37° C. and were stopped by placing into an ice slurry. Gel loading buffer was added, and the entire sample was loaded onto a 13% polyacrylamide gel containing 0.5 M urea [Heath and Rock, J. Biol. Chem., 271:1833 (1996)]. […]

Oc1cc(Cl)ccc1Oc1ccc(Cl)cc1Cl [triclosan, 2,4,4′-Trichloro-2′-hydroxydiphenyl ether]
MIC (S. pneumoniae R6; R6, S. pneumoniae): ~2 µg/mL (≈ 6.91 µM)
MIC (S. pneumoniae R6; R6, S. pneumoniae R6, brain heart infusion plates): 2 µg/mL (≈ 6.91 µM)
triclosan resistance of E. coli expressing FabL (E. coli expressing FabL): complete triclosan resistance
MIC [1]: 0.25 µg/mL (≈ 0.863 µM)
MIC (B. subtilis): about 2 μg/ml
inhibition of FabI[G93V] mutant by triclosan (FabI[G93V] mutant): still inhibited
triclosan resistance of E. coli expressing fabK (E. coli W3110/pfabK; E. coli with fabK expression): completely resistant; also recorded: complete triclosan resistance
MIC (E. coli W3110/pfabK; E. coli W3110/pfabK (His-tag S. pneumoniae FabK), read-out: MIC): > 2000 µg/mL
MIC (E. coli W3110/pfabK; pfabK plasmid in strain W3110, read-out: minimum inhibitory concentration (MIC)): > 2000 µg/mL
triclosan inhibition of P. aeruginosa (P. aeruginosa): completely refractory
susceptibility of P. aeruginosa FabI to triclosan in vitro [2]: highly susceptible
MIC [3]: 16 µg/mL (≈ 55.3 µM)
MIC (E. coli W3110/pfabI): 2 µg/mL (≈ 6.91 µM)
inhibition of FabK activity in the in vitro assay (FabK): did not inhibit
